Where “and” joins values, the source holds several entries; their conditions need not be identical. Identical values can stand only once. Where a SMILES comes first, the peptide text is derived from it. [ ]: non-standard residue; d: D form. pY = N[C@@H](Cc1ccc(OP(=O)(O)O)cc1)C(=O)O
What was measured:
[1] = tested on: wild-type p120RasGAP N-SH2; assay: Native PAGE gel shift, wild-type N-SH2; format: binding, human; conditions: saturating peptide concentrations; protein 0.08 mM, peptide 0.02 to 0.15 mM (peptide:protein 0.25 to 1.9); on ice 10 min; 50 mM Tris pH 7.4; 4–20% gel, pH 8.3, 200 V 1 h; Coomassie
Method: cDNA of residues 174 through 280 of human p120RasGAP (UniProt ID: P20936) encoding the N-terminal SH2 domain tagged was subcloned into a modified pET28a vector with an N-terminal hexahistidine tag and TEV protease recognition sequence. Two native cysteines, C236 and C261, were mutated to serine to prevent disulfide bridge formation. Following transformation into Rosetta(DE3) cells, a 1L culture was induced overnight at OD600 of 0.6–0.8 and 18°C using 0.2 mM IPTG. Cells were harvested by centrifugation and resuspended in lysis buffer (50 mM HEPES pH 7.3, 500 mM NaCl). Lysis was facilitated by lysozyme addition and three freeze/thaw cycles, prior to sonication and DNAse I addition. Clarified lysate was prepared by centrifugation at 5000 x g at 4°C and incubated with nickel beads (Ni-NTA Agarose, Qiagen) for 1 hr at 4°C to capture hexahistidine-tagged protein. Following washing with 3 column volumes of wash buffer (50 mM HEPES pH 7.3, 500 mM NaCl, 20mM imidazole), TEV protease was added overnight at 4 °C to cleave the SH2 domain protein from the hexahistidine-tag. The next day, flow through containing tag-free SH2 domain protein was collected and the beads were washed with several column volumes of wash buffer to fully remove the cleaved protein from the beads. […]

[2] = target: T1, N-terminal SH2 domain of p120RasGAP (Homo sapiens, UniProt P20936, C236S/C261S); assay: Isothermal titration calorimetry (ITC), wild-type N-SH2; conditions: 20mM Tris 7.4, 150mM NaCl, independent binding model
T1 construct: cDNA of residues 174 through 280 of human p120RasGAP (UniProt ID: P20936); made in house; host or cells: E. coli Rosetta(DE3)
T1 sequence (P20936 174-280 C236S/C261S): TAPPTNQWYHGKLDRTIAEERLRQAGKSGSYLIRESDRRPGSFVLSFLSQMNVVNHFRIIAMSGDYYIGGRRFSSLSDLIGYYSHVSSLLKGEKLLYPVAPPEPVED
Method: cDNA of residues 174 through 280 of human p120RasGAP (UniProt ID: P20936) encoding the N-terminal SH2 domain tagged was subcloned into a modified pET28a vector with an N-terminal hexahistidine tag and TEV protease recognition sequence. Two native cysteines, C236 and C261, were mutated to serine to prevent disulfide bridge formation. Following transformation into Rosetta(DE3) cells, a 1L culture was induced overnight at OD600 of 0.6–0.8 and 18°C using 0.2 mM IPTG. Cells were harvested by centrifugation and resuspended in lysis buffer (50 mM HEPES pH 7.3, 500 mM NaCl). Lysis was facilitated by lysozyme addition and three freeze/thaw cycles, prior to sonication and DNAse I addition. Clarified lysate was prepared by centrifugation at 5000 x g at 4°C and incubated with nickel beads (Ni-NTA Agarose, Qiagen) for 1 hr at 4°C to capture hexahistidine-tagged protein. Following washing with 3 column volumes of wash buffer (50 mM HEPES pH 7.3, 500 mM NaCl, 20mM imidazole), TEV protease was added overnight at 4 °C to cleave the SH2 domain protein from the hexahistidine-tag. The next day, flow through containing tag-free SH2 domain protein was collected and the beads were washed with several column volumes of wash buffer to fully remove the cleaved protein from the beads. Size exclusion chromatography (Superdex 75, GE Healthcare) was performed on p120RasGAP N-SH2 in 20 mM Tris pH 7.4 and 150 mM NaCl. Yield was 20 mg/L culture. Protein was concentrated by centrifugal filter (Amicon Ultra, Millipore Sigma).
(§1) A synthetic 13 amino acid peptide of sequence EEENI(p-Tyr)SVPHDST native to p190RhoGAP residues 1100 to 1112 phosphorylated at Tyr-1105, with N-terminal acetylation and C-terminal amidation, was commercially synthesized (GenScript) and re-suspended in sterile-filtered water.
(§2) The N-SH2 protein and pTyr1105 peptide were prepared for ITC by overnight dialysis in a common buffer with a 20mM Tris 7.4, 150mM NaCl composition. Slide-A-Lyzer Dialysis Cassettes with a molecular weight cut-off of 3,500 Da were used for protein dialysis and Micro Float-A-Lyzer Dialysis devices with a 100–500 Da cut-off for peptide dialysis. Samples were retrieved from their cartridges, spun down for 10 minutes at 4°C. Concentrations were measured using a Nanodrop spectrophotometer at 280 nm. To determine peptide concentration, a phosphotyrosine extinction coefficient of 458.6 M^-1cm^-1 at pH 7.4 was used. Two ITC experiments were performed using a Nano-ITC (TA Instruments). Both protein and peptide were degassed for 3 minutes prior to loading. 350 μL of protein were injected into the sample cell. The injection burette was loaded with 52 μL of peptide. 20 injections of 2.5 μL of peptide, each spanning 300 seconds, were performed per ITC run. Results were analyzed using the nano-ITC software, through fitting to an independent binding model.
We conducted isothermal titration calorimetry to assess the interaction between the N-terminal SH2 domain of p120RasGAP and the p190RhoGAP pTyr-1105 peptide. We injected the p190RhoGAP pTyr-1105 peptide at a concentration of 78.5 μM into N-SH2 at a concentration of 15 μM. Averaged over two independent experiments we observe a Kd of 0.3 ± 0.1 μM (Fig 5A).

[3] = tested on: R207A mutated N-SH2 (p120RasGAP); assay: Isothermal titration calorimetry (ITC), R207A mutant N-SH2; format: binding, human
Method: (§3) A mutant form, with R207A mutation, was introduced by QuikChange mutagenesis (Agilent) using forward and reverse primers (5'-[…]-3', 5'- […]-3’). Expression and purification were by identical methods as wild type protein. Yield for the mutant was 4 mg/L culture. Both wild type and mutant constructs elute from size exclusion chromatography as monodisperse peaks.
as §1
as §2, with “Two ITC experiments were performed using a Nano-ITC (TA Instruments). Both protein and peptide were degassed for 3 minutes prior to loading. 350 μL of protein were injected into the sample cell. The injection burette was loaded with 52 μL of peptide. 20 injections of 2.5 μL of peptide, each spanning 300 seconds, were performed per ITC run.” left out, “model. […]” for “model.”

[4] = tested on: R207A mutant p120RasGAP N-SH2; assay: Native PAGE gel shift, R207A mutant N-SH2; format: binding, human; conditions: protein 0.08 mM, peptide 0.02 to 0.15 mM (peptide:protein 0.25 to 1.9); on ice 10 min; 50 mM Tris pH 7.4; 4–20% gel, pH 8.3, 200 V 1 h; Coomassie
Method: as §3, §1
A serial dilution series of pTyr-1105 phosphopeptide was performed in dilution buffer (50 mM Tris pH 7.4), and mixed with wild-type or R207A mutant N-terminal SH2 domain protein for a final protein concentration of 0.08 mM and a phosphopeptide concentration ranging from 0.02 mM to 0.15 mM (peptide:protein ratio ranging from 0.25 to 1.9). The protein-peptide mixtures, or protein alone as negative control, were incubated on ice for 10 minutes and then centrifuged for 1 minute at 4 °C. 10 μL of 2X native protein sample buffer (62.5 mM Tris HCL pH 6.8, 40% glycerol, 0.01% bromophenol blue) was then added to all samples. […]

[5] = target: p190RhoGAP pTyr-1105 peptide pTyr-1105 peptide (Homo sapiens, UniProt Q9NRY4, pTyr1105); assay: ITC
[6] = target: T2, p120RasGAP N-terminal SH2 domain (residues 174-280, C236S, C261S) (human, UniProt P20936 174-280, C236S | C261S); assay: ITC; peptide in the burette injected into N-SH2 in the cell (78.5 μM into 15 μM wild type; 120 μM into 15 μM R207A); 20 mM Tris 7.4, 150 mM NaCl; Nano-ITC, 20 injections of 2.5 μL; independent binding model; two runs; conditions: both partners purified
T2 construct: human p120RasGAP (RASA1), residues 174 through 280, the N-terminal SH2 domain; two native cysteines mutated to serine; The His6 tag was removed with TEV protease; also called p120RasGAP N-SH2; N-SH2; source: E. coli Rosetta(DE3), purified (Ni-NTA, TEV cleavage, Superdex 75 SEC); not shown: His6, N-terminal, cleaved
T2 sequence (looked up): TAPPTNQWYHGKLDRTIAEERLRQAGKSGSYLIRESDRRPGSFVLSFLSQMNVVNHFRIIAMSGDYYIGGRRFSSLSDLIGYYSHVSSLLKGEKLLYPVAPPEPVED

Molecule: CC[C@H](C)[C@H](NC(=O)[C@H](CC(N)=O)NC(=O)[C@H](CCC(=O)O)NC(=O)[C@H](CCC(=O)O)NC(=O)[C@H](CCC(=O)O)NC(C)=O)C(=O)N[C@@H](Cc1ccc(OP(=O)(O)O)cc1)C(=O)N[C@@H](CO)C(=O)N[C@H](C(=O)N1CCC[C@H]1C(=O)N[C@@H](Cc1c[nH]cn1)C(=O)N[C@@H](CC(=O)O)C(=O)N[C@@H](CO)C(=O)N[C@H](C(N)=O)[C@@H](C)O)C(C)C [p190RhoGAP pTyr-1105 peptide] (Ac-EEENI[pY]SVPHDST-NH2)
- mobility shift in native gel [1]: significant increase in its mobility in the gel
- Kd ([2]; averaged over two independent ITC experiments, peptide at 78.5 μM injected into N-SH2 (residues 174-280, C236S/C261S) at 15 μM, 20 injections of 2.5 μL, 300 s each, read-out: Kd (dissociation constant)): 300 ± 100 nM
- TΔS ([2]; run 1 of two): -8.9 kcal/mol
- ΔG ([2]; run 1 of two): -8.7 kcal/mol
- ΔH ([2]; run 1 of two): -17.6 kcal/mol
- TΔS ([2]; run 2 of two): -4.9 kcal/mol
- ΔG ([2]; run 2 of two): -9.0 kcal/mol
- ΔH ([2]; run 2 of two): -13.9 kcal/mol
- interaction upon mutation of the FLVR motif arginine residue ([3]; R207A mutant, summarising statement of the Conclusions (ITC and native PAGE)): abolishes interaction
- heat of binding ([3]; peptide at 120 μM injected into R207A mutated N-SH2 at 15 μM, 20mM Tris 7.4, 150mM NaCl): do not observe measurable heat
- mobility shift in native gel [4]: fails to shift

B1: p120RasGAP N-terminal SH2 (protein)
chain: WYHGKLDRTIAEERLRQAGKSGSYLIRESDRRPGSFVLSFLSQMNVVNHFRIIAMCGDYYIGGRRFSSLSDLIGYYSHVSCLLKGEKLLYPV
- Kd [5]: 300 nM

B2: p190RhoGAP pTyr-1105 phosphopeptide EEENI(p-Tyr)SVPHDST (residues 1100-1112) (peptide)
peptide: Ac-EEENI[pY]SVPHDST-NH2
SMILES: CC[C@H](C)[C@H](NC(=O)[C@H](CC(N)=O)NC(=O)[C@H](CCC(=O)O)NC(=O)[C@H](CCC(=O)O)NC(=O)[C@H](CCC(=O)O)NC(C)=O)C(=O)N[C@@H](Cc1ccc(OP(=O)(O)O)cc1)C(=O)N[C@@H](CO)C(=O)N[C@H](C(=O)N1CCC[C@H]1C(=O)N[C@@H](Cc1c[nH]cn1)C(=O)N[C@@H](CC(=O)O)C(=O)N[C@@H](CO)C(=O)N[C@H](C(N)=O)[C@@H](C)O)C(C)C
notes: The sixth residue (Y) is phosphotyrosine; also called pTyr1105 peptide; source: synthetic peptide (GenScript)
- Kd [6]: 240 nM and 430 nM
- dH [6]: -17.6 kcal/mol and -13.9 kcal/mol
- stoichiometry N [6]: 0.724 and 0.63

Reference: article PMC6938330, “Crystal structures of p120RasGAP N-terminal SH2 domain in its apo form and in complex with a p190RhoGAP phosphotyrosine peptide” (PLoS ONE, 2019)
